Experimental findings from article PMC6168621 (Frontiers in Pharmacology, 2018) are described below.

Data set [1] in a line: LC-MS/MS analysis of forensic clinical samples (urine, serum). The data set is classed as in vivo. The settings on record: human forensic clinical sample; for Concentration in serum: Patient 002, serum (text: blood); for Concentration in urine: Patient 002, urine. The source says:
For human studies, ToxBox® analytical test kits were provided by PinPoint Testing, LLC (Little Rock, AR, United States) to streamline sample preparation and testing procedures for SCBs, confounding drugs of abuse and other non-specified NPSs. ToxBox® contained NIST-traceable, certified reference material for all standards and isotopically-labeled internal standards along with ISOLUTE® SLE+ 96-well plates manufactured by Biotage (Charlotte, NC, United States). This newly developed kit identifies not only novel SCBs and associated metabolites, but also over 200 drugs and other NPSs that often confound such analytical tests. Optima-grade formic acid, acetonitrile, and methanol were purchased from Fisher Scientific (Fair Lawn, NJ, United States). Deionized water was purified to 18.2 MΩ⋅cm resistivity using the equivalent of a Millipore laboratory water purification system. All other chemicals and supplies were provided by Cerilliant (Round Rock, TX, United States), Cayman Chemical Company (Ann Arbor, Michigan, United States), Lipomed (Cambridge, MA), Biotage (Charlotte, NC, United States) or HemoStat Laboratories (Dixon, CA, United States). Blank defibrinated sheep blood or blank human blood void of drug contamination was used for all studies.
Supported liquid extraction (SLE) procedures were optimized for 96-wellplate processing on a PerkinElmer Zephyr G3 SPE Workstation (Waltham, MA, United States). Sample extracts were analyzed using an Agilent 1260 quaternary liquid chromatography system (Santa Clara, CA, United States) coupled to an Agilent 6420 tandem mass spectrometer (LC-MS/MS). Instrument control and data acquisition relied on MassHunter LC/MS Data Acquisition (VER B.08.00). Data analysis was performed using MassHunter Quantitative Analysis (VER B.07.01 SP2).
Use of this material was approved by the Institutional Review Board of the University of Arkansas for Medical Sciences (Little Rock, AR, United States) (IRB #217584).
All blood calibration standards, QC material, and unknown samples were processed identically by mixing 0.25 ml of blank blood or unknown specimen in appropriate wells at 900 rpm for 15 min, pretreating with 0.25 mL of 0.5 M ammonium hydroxide, and then mixing for another 15 min at 900 rpm. Samples were then loaded, under gentle vacuum or positive pressure, onto a 400 mg ISOLUTE® SLE+ 96-wellplate. Samples were allowed to equilibrate for 5 min before extracting under gravity with two fractions of 900 μL of ethyl acetate. All sample extracts were evaporated to dryness under a gentle flow of nitrogen and reconstituted in 100% methanol (100 μl).
Analytical procedures used 5 μl injections on a 2.6 μm Phenomenex Kinetex Phenyl Hexyl (50 × 4.6 mm) LC column heated to 35°C. Analytes were resolved at 0.5 mL/min using mobile phase A (10 mM ammonium formate in ultrapure 18.2 MΩ⋅cm water) and mobile phase B (0.1% formic acid in methanol). Analytes are resolved using a gradient starting at 95% aqueous (Mobile Phase A) and ramping to 0% aqueous over 4 min, and holding constant for 1 min. The gradient returned to initial conditions over 0.1 min and equilibrated for an additional 1.9 min. The total run time including column equilibration period between injections was 7.0 min. Specific mass spectrometer and analyte parameters are provided in Supplementary Tables S2, S3.

Data set [2] deals with T1, hCB1Rs (Homo sapiens, UniProt P21554).
T1 construct: host or cells: CHO-K1 (CHO-hCB1)
T1 sequence (P21554 whole entry): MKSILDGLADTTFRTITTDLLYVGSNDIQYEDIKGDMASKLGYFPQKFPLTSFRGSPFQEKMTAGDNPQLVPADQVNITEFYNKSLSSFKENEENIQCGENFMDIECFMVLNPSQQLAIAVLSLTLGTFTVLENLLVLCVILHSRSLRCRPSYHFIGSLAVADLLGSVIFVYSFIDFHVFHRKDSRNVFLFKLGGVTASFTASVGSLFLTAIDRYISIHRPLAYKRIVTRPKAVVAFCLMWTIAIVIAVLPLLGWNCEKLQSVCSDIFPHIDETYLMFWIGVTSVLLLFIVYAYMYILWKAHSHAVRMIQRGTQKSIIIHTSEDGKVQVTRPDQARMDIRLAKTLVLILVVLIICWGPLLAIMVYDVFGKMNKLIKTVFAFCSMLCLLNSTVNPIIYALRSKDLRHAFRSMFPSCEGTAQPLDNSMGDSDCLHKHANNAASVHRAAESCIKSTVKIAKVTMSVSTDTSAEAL
Kind of data set: biochemical. The data set is classed as binding. The settings on record: [^3H]CP-55,940 binding, CHO-hCB1 membranes.

For data set [3], the target named is T1, hCB1Rs. Kind of data set: biochemical. As to conditions: CHO-hCB1 membranes; for Emax: read-out: EMAX, [^35S]GTPγS binding (maximal G-protein activation). On the technique in general: Binding of GTPγS marks nucleotide exchange on a G protein.
Data set [4] relates to human liver microsomes (HLMs). The experiment in a line: Glucuronidation of AB-PINACA and JWH-018 metabolites in HLMs. It is filed as in vitro ADME. As to conditions: 50 μM substrate, HLMs with UDPGA, 90 min, 37°C. How it is done:
A typical incubation mixture (30 μl of total volume) contained 100 mM Tris-HCl (pH 7.4), 5 mM MgCl2, 3 mM UDPGA, 80 μg/ml alamethicin, 50 μg HLMs, 5 mM saccharolactone, and 50 μM 4OH- or 5OH-AB-PINACA. […] After incubation at 37°C for 90 min, reactions were terminated by the addition of 30 μl cold ethanol. Following removal of the protein by centrifugation at 12,000 × g for 10 min, a 5-μl portion of the sample was subjected to UPLC. All incubations were performed in triplicate.
Parent compounds and glucuronidated metabolites were identified by the ACQUITY UPLC System with a UV detector (Milford, MA, United States). […] The column was re-equilibrated at initial conditions for 2.5 min between runs. The elution was monitored at 300 nm. The retention times of 4OH-AB-PINACA, 5OH-AB-PINACA, 4OH-AB-PINACA glucuronide, and JWH-018-M2 were 3.989, 3.994, 3.646, and 5.391 min.
FIGURE 4 Glucuronidation of 4OH- and 5OH-AB-PINACA in human liver microsomes (HLMs). 4OH-AB-PINACA (A) and 5OH-AB-PINACA (B) were incubated for 90 min with HLMs in the presence or absence of UDPGA. The terminated reaction mixtures were subjected to the UPLC analysis and the eluent was monitor with a UV detector at 300 nm and chromatograms presented. (C) The peak area of the glucuronide was estimated from the triplicate determinations. The data are presented as mean value ± SD. ND, not detected. (D) Comparison of glucuronidation of JWH-018-M2 and 4OH-AB-PINACA with HLMs. JWH-018-M2 and 4OH-AB-PINACA (5 μM) were incubated for 90 min with HLMs in the presence or absence of UDPGA. The terminated reaction mixtures were subjected to the UPLC analysis and the eluent was monitor with a UV detector at 300 nm. The remaining amount of the substrates was quantified by using standard curves of JWH-018-M2 and 4OH-AB-PINACA. The data was shown as mean value ± SD. ^∗P < 0.001. TEXT PRINTED IN THE PICTURE: (C) 5OH-AB-PINACA: Peak area (μV*sec): ND

Data set [5] has as its target T1, hCB1Rs. Kind of data set: cell-based. It is filed as cell-based. The settings on record: intact CHO-hCB1 cells, 10 μM forskolin, 15 min.
Data set [6] concerns CD1 mice. Kind of data set: Cannabinoid-elicited hypothermia (rectal temperature). The data set is classed as in vivo. How it is done:
For in vivo studies, rimonabant was synthesized in the laboratory of Dr. Thomas E. Prisinzano at the University of Kansas School of Pharmacy (Lawrence, KS, United States), and provided to us as a generous gift. AB-PINACA, and its 4OH metabolite were obtained from Cayman Chemical Company (Ann Arbor, MI, United States). All cannabinoids were dissolved in a vehicle consisting of ethanol, emulphor and saline at a ratio of 1:1:18. Injections were administered via the intraperitoneal (IP) route at a constant volume of […]. Rimonabant was administered at a dose of 10 mg/kg, 60 min before injection of AB-PINACA or its 4OH metabolite.
Adult male CD1 mice (Charles River Laboratory, Wilmington, MA, United States) were housed three subjects per cage (15.2 cm × 25.4 cm × 12.7 cm) in a temperature-controlled room in a vivarium accredited by the Association for Assessment and Accreditation of Laboratory Animal Care, and given ad libitum food (Laboratory Rodent Diet no. 5001; PMI Feeds, St. Louis, MO, United States) and water. The vivarium was maintained at 22°C ± 2°C and 45–50% humidity, with lights set to a 12-h light/dark cycle (lights on at 6:00 AM, CST). […] All procedures were carried out in accordance with the Guide for Care and Use of Laboratory Animals as adopted and promulgated by the National Institutes of Health (NIH). The experimental protocol has been approved by the Institutional Animal Care and Use Committee (IACUC) at the University of Arkansas for Medical Sciences (UAMS).
Mice were habituated to handling and weighing prior to initiation of experimental procedures. A digital thermometer (model BAT-12, PhysiTemp, Clifton, NJ, United States) equipped with a Ret-3 mouse probe (model 50314, Stoelting Co., Dale, IL, United States) was lubricated and inserted approximately 2 cm into the rectum. Stable temperatures were obtained within ∼6 s. Rectal temperature data were sampled immediately before injection, and at 10, 30, 60, 120, 240, and 360 min after injection.
Curve-fitting was conducted utilizing GraphPad Prism® v6.0b (GraphPad Software, Inc.; San Diego, CA, United States). Non-linear regression for one-site competition was used to determine the IC50 for competition receptor binding. The Cheng-Prusoff equation ([Cheng and Prusoff, 1973]) was employed to convert the experimental IC50 values obtained from competition receptor binding experiments to Ki values (a quantitative measure of receptor affinity). Curve fitting of concentration-effect curves via non-linear regression was also employed to determine the […] or IC50 (measures of potency) and Emax or Imax (measures of efficacy) for the [^35S]GTPγS and adenylyl cyclase experiments, respectively. All dissociation constants and measurements of potency were converted to pKi, pEC50, or pIC50 values by taking the negative log of each value so that parametric tests could be used for statistical comparisons. A one-way ANOVA, followed by Tukey’s Multiple Comparison post hoc test, was used to determine statistical significance (P < 0.05). For animal studies, temperature data are shown as mean values (±SEM) for groups of subjects at each drug dose and time point. For statistical analyses, only the highest dose of AB-PINACA or its 4OH- metabolite (with and without rimonabant pretreatment) were considered. The lowest temperatures recorded for each subject within each group (regardless of when after drug administration it occurred) were compared to vehicle data using a one-way ANOVA and Tukey’s HSD post hoc test. Significance was judged at P < 0.05.

The mark [7] stands for this setting: Ki, 0.2 nM [^3H]CP-55,940, Cheng-Prusoff.
Where [8] appears, read: pKi, 0.2 nM [^3H]CP-55,940, mean ± SEM.
Setting [9] is: mean ± SEM, read-out: pEC50, [^35S]GTPγS binding (converted).
The mark [10] stands for this setting: read-out: EC50, [^35S]GTPγS binding.

Each structure is given as a SMILES string. “Also recorded” adds a separate entry of the source. Like-named read-outs stand apart in the source and are kept apart here. Marks after values point to notes of the source that are not given here.

As a reminder, the Ki is a measure of affinity in units of concentration, obtained from inhibition or displacement. Higher therefore signals a looser hold on the target. By Emax is commonly meant the maximal effect, on the per cent scale that the assay sets.

In data set [1], `CC(C)(C)[C@H](NC(=O)c1nn(CC2CCCCC2)c2ccccc12)C(N)=O` yielded a Concentration in serum of 11.3 ng/mL.
Take `CC(C)C(NC(=O)c1nn(CCCCCO)c2ccccc12)C(N)=O` (stereo not drawn) [5OH-AB-PINACA]: the inhibition constant Ki in data set [2] (setting [7]) was 452 nM; in data set [2] (setting [8]), 447 nM. Moreover, the Emax in data set [3] (mean ± SEM) came to 100 ± 16.8%. Further, the EC50 in data set [3] (setting [9]) is 2820 nM; in data set [3] (setting [10]) it was 2740 nM. Besides, the “Glucuronide formation (UPLC peak)” value in data set [4] is reported as “no such peak is observed; also recorded: glucuronidation is not involved in the clearance”.
In data set [1], `CC(C)[C@H](NC(=O)c1nn(Cc2ccc(F)cc2)c2ccccc12)C(N)=O` [AB-FUBINACA] returned a Concentration in urine of 1.1 ng/mL.
Consider `CCCCCn1nc(C(=O)N[C@H](C(N)=O)C(C)C)c2ccccc21` [AB-PINACA, (S)-N1(1-amino-3-methyl-1-oxobutan-2-yl)-1-pentyl-1H-indazole-3-carbox-amide], for which the inhibition constant (Ki) in data set [2] (setting [7]) is 4 nM; in data set [2] (setting [8]), 1.78 nM. Moreover, the Emax in data set [3] (mean ± SEM) was 71.9 ± 5.8%. For the same compound, the EC50 was 8.71 nM in data set [3] (setting [9]) and 12.8 nM in data set [3] (setting [10]). Further, the “IMAX, cAMP accumulation (maximal adenylyl cyclase inhibition)” value in data set [5] is listed as 72.0 ± 2.1^b %. In addition, the IC50 in data set [5] (read-out: IC50, cAMP accumulation (adenylyl cyclase inhibition)) is 3.9 nM; in data set [5] (read-out: pIC50, cAMP accumulation (converted)) it was 2.24 nM. The “Lowest rectal temperature, hypothermic effect vs vehicle” value in data set [6] (10.0 mg/kg i.p., P < 0.05) is recorded as “significantly different”. In addition, in data set [6] (10.0 mg/kg i.p., rimonabant 10.0 mg/kg 60 min before, P < 0.05), the “Lowest rectal temperature, drug alone vs rimonabant pretreatment” value is “significantly different”. The “Effect on rectal temperature” value is “dose- and time-dependent hypothermic effects” in data set [6] (3.0 and 10.0 mg/kg, i.p.); “prevents the typical injection-elicited increase in rectal temperature” in data set [6] (lowest tested dose (1.0 mg/kg), i.p.). Also, the Concentration in serum in data set [1] came to 1.2 ng/mL. This compound registered a Concentration in urine in data set [1] of 0.9 ng/mL.
For `Cc1c(C(=O)NN2CCCCC2)nn(-c2ccc(Cl)cc2Cl)c1-c1ccc(Cl)cc1` [Rimonabant, reference compound], the “Effect on rectal temperature” value in data set [6] (10 mg/kg, alone) is “does not alter rectal temperature”.
Turning to `C=C(C)C(C)(C)CC(=O)c1cn(CCCCC(=O)O)c2ccccc12` [UR-144-pentanoic acid degradant], the Concentration in serum in data set [1] was determined as 5.4 ng/mL.
